Measured values reported in patent US9981972B2, “N-hydroxy bicyclic hydantoin carbamates as tools for identification of serine hydrolase targets” (ABIDE THERAPEUTICS, INC., priority 2014, dated 2018).
“Also recorded” adds a separate entry of the source.

Assays:
Assay type in all cases: biochemical
[1] = target: T1, LYPLA2 (Mus musculus, UniProt Q9WTL7); experiment: Gel-based competitive ABPP in vitro, mouse brain membrane proteome; conditions: 30 min, one replicate; for inhibition at 0.1 µM: 0.1 μM compound, read-out: LYPLA2 % INH 0.1 μM; for inhibition at 1 µM: 1 μM compound, read-out: LYPLA2 % INH 1 μM; for inhibition at 10 µM: 10 μM compound, read-out: LYPLA2 % INH 10 μM; for inhibition at 100 µM: 100 μM compound, read-out: LYPLA2 % INH 100 μM
T1 construct: a complex proteome endogenously expressing LYPLA1/2 was incubated with test compound; from tissue; host or cells: mouse brain, membrane fraction
T1 sequence (Q9WTL7 whole entry): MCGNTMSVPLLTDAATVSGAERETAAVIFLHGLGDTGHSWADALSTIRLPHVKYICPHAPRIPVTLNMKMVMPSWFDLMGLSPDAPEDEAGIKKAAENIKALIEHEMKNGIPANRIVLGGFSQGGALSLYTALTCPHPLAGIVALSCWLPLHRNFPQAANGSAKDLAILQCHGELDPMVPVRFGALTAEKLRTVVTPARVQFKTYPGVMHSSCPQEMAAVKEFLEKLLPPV
Description: (§1) Assay Overview: The purpose of this assay was to determine whether test compounds can inhibit LYPLA1 and LYPLA2 in a complex proteomic lysate and to assess anti-target inhibition using a competitive activity-based proteomic profiling (ABPP) assay. In this assay, a complex proteome endogenously expressing LYPLA1/2 was incubated with test compound followed by reaction with a rhodamine-conjugated fluorophosphonate (FP-Rh) serine-hydrolase specific activity-based probe. The reaction products were separated by SDS-PAGE and visualized in-gel using a flatbed fluorescence scanner. The percentage activity remaining was determined by measuring the integrated optical density of the bands. […] Percent inhibition was calculated relative to a DMSO (no compound) control.
(§2) Protocol Summary: Mouse brain membrane proteome (50 μL reaction volume, 1 mg/mL in DPBS) was treated with 0.1-100 μM test compound (1 μL of a 50× stock in DMSO) for 30 minutes at 37° C. FP-Rh (1 μL of 50× stock in DMSO, Thermo #88318) was added to a final concentration of 2 μM. The reactions were incubated for 30 minutes at 25° C., quenched with 16 μL 4×SDS-PAGE loading buffer (reducing), separated by SDS-PAGE and visualized by in-gel fluorescent scanning. The percentage activity remaining was determined by measuring the integrated optical density of the bands relative to a DMSO-only (no compound) control. Assay Cutoff: Compounds with ≥50% inhibition of targets at 1 μM test compound concentration were considered active.
(§3) N-Hydroxy bicyclic hydantoin carbamates (Compounds 1-20) listed in Table 1 were subjected to gel-based competitive ABPP screening to assess SH reactivity against more than 20 FP-sensitive SHs visible by 1D SDS-PAGE separation and fluorescent detection in the mouse brain proteome (see FIG. 1). […] Compound treatment ([…], 30 minutes) was followed by labeling with SH-specific ABPP probe FP-Rh (2 μM, 30 minutes), 1D-SDS-PAGE, and in-gel fluorescent visualization of FP-labeled proteins. Assignment of LYPLA1/2 bands was based on correlation of molecular weights, expression and inhibition profiles with LC-MS/MS data and recombinant enzyme expression. Proteins were listed as anti-targets if at least 50% inhibition was observed as quantified relative to the DMSO control.
(§4) Compounds 1-20 were subjected to gel-based competitive ABPP profiling to assess potency and selectivity against several dozen FP-sensitive SHs in the mouse brain membrane proteome, which endogenously expresses LYPLA1 and LYPLA2, as well a diversity of potential SH anti-targets. Compounds were tested at 100 μM, 10 μM, 1 μM, and/or 0.1 μM compound concentration.

[2] = target: T2, LYPLA1 (Mus musculus, UniProt P97823); experiment: as above; conditions: 30 min, one replicate; for inhibition at 0.1 µM: 0.1 μM compound, read-out: LYPLA1 % INH 0.1 μM; for inhibition at 1 µM: 1 μM compound, read-out: LYPLA1 % INH 1 μM; for inhibition at 10 µM: 10 μM compound, read-out: LYPLA1 % INH 10 μM; for inhibition at 100 µM: 100 μM compound, read-out: LYPLA1 % INH 100 μM
T2 construct: a complex proteome endogenously expressing LYPLA1/2 was incubated with test compound; from tissue; host or cells: mouse brain, membrane fraction
T2 sequence (P97823 whole entry): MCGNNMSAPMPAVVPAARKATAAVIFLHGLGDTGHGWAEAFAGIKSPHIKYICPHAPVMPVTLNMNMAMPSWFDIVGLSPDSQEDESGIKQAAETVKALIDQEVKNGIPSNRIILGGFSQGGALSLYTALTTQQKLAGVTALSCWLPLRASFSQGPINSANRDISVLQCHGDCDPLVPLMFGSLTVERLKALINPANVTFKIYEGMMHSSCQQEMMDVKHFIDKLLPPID
Description: as §1, §2, §3, §4

[3] = tested on: FP-sensitive SHs in the mouse brain membrane proteome; experiment: Gel-based competitive ABPP in vitro, mouse brain membrane proteome, anti-targets; conditions: for Anti-target(s) 0.1 μM: SHs with at least 50% inhibition at 0.1 μM compound; for Anti-target(s) 1 μM: SHs with at least 50% inhibition at 1 μM compound; for Anti-target(s) 10 μM: SHs with at least 50% inhibition at 10 μM compound; for Anti-target(s) 100 μM: SHs with at least 50% inhibition at 100 μM compound
Description: as §1, §2, §3, §4

SMILES | inhibition at 0.1 µM [1] [%] | inhibition at 1 µM [1] [%] | inhibition at 10 µM [1] [%] | inhibition at 100 µM [1] [%] | inhibition at 0.1 µM [2] [%] | inhibition at 1 µM [2] [%] | inhibition at 10 µM [2] [%] | inhibition at 100 µM [2] [%] | Anti-target(s) 0.1 μM [3] | Anti-target(s) 1 μM [3] | Anti-target(s) 10 μM [3] | Anti-target(s) 100 μM [3]
O=C(ON1C(=O)C2CN(CCc3ccccc3)CCN2C1=O)N1CCC(CCc2ccc(Cl)cc2)CC1 (stereo not drawn) [Compound 12, 1,3-dioxo-7-phenethylhexahydroimidazo[1,5-a]pyrazin-2(3H)-yl 4-(4-chlorophenethyl)piperidine-1-carboxylate] | 0 | 25 | 95 | 100 | 0 | 25 | 95 | 100 | ABHD6 | ABHD6 | FAAH,; also recorded: ABHD4,; also recorded: MAGL,; also recorded: ABHD6 | FAAH,; also recorded: ABHD4,; also recorded: MAGL,; also recorded: ABHD6
CC(C)(C)OC(=O)N1CCN2C(=O)N(OC(=O)N3CCCCC3)C(=O)C2C1 (stereo not drawn) [Compound 14, tert-butyl 1,3-dioxo-2-(piperidine-1-carbonyloxy)hexahydroimidazo[1,5-a]pyrazine-7(1H)-carboxylate] | 0 | 0 | 0 | 25 | 0 | 0 | 0 | 25 | ABHD6 | ABHD6 | ABHD6 | APEH,; also recorded: ABHD6
COC(=O)C1CCN(C(=O)ON2C(=O)C3CN(C(=O)OC(C)(C)C)CCN3C2=O)CC1 (stereo not drawn) [Compound 15, 1-(7-(tert-butoxycarbonyl)-1,3-dioxohexahydroimidazo[1,5-a]pyrazin-2(3H)-yl) 4-methyl piperidine-1,4-dicarboxylate] | 0 | 0 | 0 | 25 | 0 | 0 | 0 | 25 | ABHD6 | ABHD6 | ABHD6 | ABHD6
CC(C)(C)OC(=O)N1CCN2C(=O)N(OC(=O)N3CCOCC3Cc3ccccc3)C(=O)C2C1 (stereo not drawn) [Compound 16, 7-(tert-butoxycarbonyl)-1,3-dioxohexahydroimidazo[1,5-a]pyrazin-2(3H)-yl 3-benzylmorpholine-4-carboxylate] | 0 | 0 | 0 | 0 | 0 | 0 | 0 | 0 | none | none | ABHD6 | ABHD6
CC(C)(C)OC(=O)N1CCN2C(=O)N(OC(=O)N3CCN(CCc4ccccc4)CC3)C(=O)C2C1 (stereo not drawn) [Compound 17, tert-butyl 1,3-dioxo-2-(4-phenethylpiperazine-1-carbonyloxy)hexahydroimidazo[1,5-a]pyrazine-7(1H)-carboxylate] | 0 | 0 | 50 | 75 | 0 | 0 | 75 | 90 | ABHD6 | ABHD6 | ABHD6 | FAAH,; also recorded: ABHD12,; also recorded: ABHD6
CC(C)(C)OC(=O)N1CCN2C(=O)N(OC(=O)N3CCN(C(c4ccc(Cl)cc4)c4ccc(Cl)cc4)CC3)C(=O)C2C1 (stereo not drawn) [Compound 18, tert-butyl 2-(4-(bis(4-chlorophenyl)methyl)piperazine-1-carbonyloxy)-1,3-dioxohexahydroimidazo[1,5-a]pyrazine-7(1H)-carboxylate] | 0 | 10 | 50 | 60 | 0 | 10 | 50 | 60 | ABHD6 | ABHD6 | ABHD6 | ABHD6
CC(C)(C)OC(=O)N1CCN2C(=O)N(OC(=O)N3CCC(C(=O)Nc4ccccc4)CC3)C(=O)C2C1 (stereo not drawn) [Compound 19, tert-butyl 1,3-dioxo-2-(4-(phenylcarbamoyl)piperidine-1-carbonyloxy)hexahydroimidazo[1,5-a]pyrazine-7(1H)-carboxylate] | 0 | 0 | 0 | 25 | 0 | 0 | 10 | 50 | ABHD6 | ABHD6 | ABHD6 | FAAH,; also recorded: ABHD6
CCN(C(=O)C1CCN(C(=O)ON2C(=O)C3CN(C(=O)OC(C)(C)C)CCN3C2=O)CC1)c1ccccc1 (stereo not drawn) [Compound 20, tert-butyl 2-(4-(ethyl(phenyl)carbamoyl)piperidine-1-carbonyloxy)-1,3-dioxohexahydroimidazo[1,5-a]pyrazine-7(1H)-carboxylate] | 0 | 10 | 75 | 100 | 0 | 10 | 100 | 100 | ABHD6 | ABHD6 | ABHD6 | ABHD6
